Laboratory results from patent publication US20250250567A1, “PROTOZOA TRANSCRIPTION FACTOR INHIBITOR” (priority 2022, published 2025).

Assays:
[1] = test system: artemisinin-resistant plasmodium strain, various Plasmodium strains; assay: proliferation of artemisinin-resistant and other Plasmodium strains in human red blood cells in vitro; format: cell-based; details: 72 hours after infection
Experimental: Plasmodia were cultured in red blood cells in the presence of various concentrations of a PIPA and, 72 hours later, parasitemia was assessed;
An effect of the AP2-PIPA on proliferation of an artemisinin-resistant strain in vitro was further examined (FIG. 4). Human red blood cells were infected with various Plasmodium strains and cultured in the presence or absence of the AP2-PIPA at various concentrations. Parasitemia was evaluated at 72 hours after the infection to verify a degree of proliferation of Plasmodium treated with various concentrations of the AP2-PIPA, and an IC50 value for the AP2-PIPA in each Plasmodium strain was calculated from the above results. As a result, the AP2-PIPA1 inhibited proliferation of the artemisinin-resistant plasmodium strain with a lower IC50.

[2] = test system: P. falciparum 3D7 laboratory strain; assay: proliferation and life cycle of P. falciparum 3D7 at blood stage in vitro (Giemsa staining, FACS); format: cell-based; details: for life cycle of P. falciparum (microscopic observation, Giemsa staining): 24 and 48 hours after infection; for transition to schizont stage / schizont formation: in vitro culture
Experimental: Then, an effect of the AP2-PIPA on proliferation of a P. falciparum 3D7 laboratory strain at a blood stage in vitro was examined. Human red blood cells were infected with P. falciparum and cultured in the presence or absence of the AP2-PIPA. Microscopic observation with Giemsa staining and quantitative count of parasites and their stages by FACS analysis were performed at 24 and 48 hours after the infection.

U937 cells, A549 cells = assay: cytotoxicity in human cell lines (DNA release, LDH activity in culture supernatant); format: cell-based; details: DNA release and LDH activity in culture supernatant
Experimental: (§1) Next, a binding affinity of a PIPA to dsDNA containing the target sequence for the AP2-PIPA (FIG. 1b) was verified. As designed, the AP2-PIPA1 was bound to the target sequence with a high binding activity, that is, a Kd value of 4.0 nM (FIG. 1c). Consistent with previous reports of low off-target toxicity of a PIPA, the AP2-PIPA was not toxic in either mouse cell lines (Raw264.7 cells, NIH3T3 cells) or human cell lines (U937 cells, A549 cells) (FIG. 2a and FIG. 2b). These analysis results support safety of a PIPA at least in the dose range in vitro.

[3] = test system: artemisinin-resistant plasmodium (Pf lek122); assay: malaria treatment in humanized mice infected with artemisinin-resistant plasmodium; format: in vivo; details: i.p. on days 21-25, humanized NOG-SCID mice
Excerpt: AP2-PIPA1, which was designed in the same manner as in Example 1, was used to verify an inhibitory effect in vivo. Mice wherein red blood cells had been replaced with human red blood cells were infected with an artemisinin-resistant plasmodium and a therapeutic effect was examined in the thus-infected mice. The effect was verified in the case of administration of a PIPA alone and the case of combined administration with artemisinin.
Humanized mice were created by injecting human red blood cells (RBCs) into NOG-SCID mice. One milliliter of 50% HCT, A+ve red blood cells prepared with 0.5% Albumax and 3.1 mM hypoxanthine was injected into the NOG-SCID mice once daily for 3 weeks until 80% of the human red blood cells were established. The humanized mice were then infected with an artemisinin-resistant plasmodium (Pf lek122) by 4×10^7 RBCS infected with synchronized ring-stage parasites, and checked for parasitemia by determining a rate of Giemsa-stain positive RBCs from the infected mice. On days 21, 22, 23, 24, and 25, AP2-PIPA1 (AP2-1), artemisinin, or both were injected i.p. at the indicated dose.

[4] = molecular target: dsDNA containing the target sequence TGCATG (SEQ ID NO: 1), AP2-Sc binding sequence; assay: binding affinity of PIPA to dsDNA containing the target sequence; parameters: species or system P. falciparum
Experimental: FIG. 1b is a schematic diagram showing a DNA fragment used in one embodiment of the present disclosure to analyze a binding strength of AP2-PIPA1 to its target sequence;
as §1

[5] = toxicity of a single intraperitoneal administration in mice; format: in vivo
Experimental: (§2) Toxicity of a single intraperitoneal administration of AP2-PIPA1 was studied in mice. […] Observation of viability and general conditions, measurement of body weight, a hematology test, a blood chemistry test, and necropsy were performed as toxicity assessment indices. […] However, the value for each individual in these groups falls within a background value (34 to 58 IU/L) and thus the changes are determined to be due to physiological variation.
as §2, with “Furthermore, toxicity of a” for “Toxicity of a”, “administration of the AP2-PIPA1 was” for “administration of AP2-PIPA1 was”

[6] = toxicity of multiple administrations in mice; format: in vivo; details: once daily for 7 days orally or intraperitoneally
Experimental: Mice received various doses of AP2-PIPA1 once daily for 7 days orally or intraperitoneally. On day 8, blood was collected and AST and ALT were measured. Significant difference tests were performed for the 3 mg/kg and 10 mg/kg dose groups relative to the control group for each route of administration.
Furthermore, toxicity of multiple administrations of the AP2-PIPA1 was studied in mice. Mice received various doses of the AP2-PIPA1 once daily for 7 days orally or intraperitoneally. On day 8, blood was collected and AST and ALT were measured (FIG. 5b). Significant difference tests were performed for the 3 mg/kg and 10 mg/kg dose groups relative to the control group for each route of administration.

[7] = test system: Plasmodium berghei strain; assay: mouse infection experiment, parasitemia; format: in vivo; details: intraperitoneal
Experimental: Furthermore, an effect of the AP2-PIPA1 was verified in a mouse infection experiment. Mice were infected with a Plasmodium berghei strain and received the AP2-PIPA1 intraperitoneally at each time point (day 1, day 2, day 3, day 4, day 5, day 6, and day 7) shown in the upper schematic diagram in FIG. 6. Blood was collected at 11 or 13 days after the infection to assess parasitemia. […] Multiple administrations of a high dose, i.e., 30 mg/kg are believed to cause toxicity.

[8] = test system: Raw264.7 cells, NIH3T3 cells; assay: cytotoxicity in mouse cell lines (DNA release, LDH activity in culture supernatant); format: cell-based; details: mouse cell lines Raw264.7, NIH3T3; DNA release and LDH activity in culture supernatant
Experimental: as §1

Plasmodium spp. = details: known; cited from earlier work
[9] = single intraperitoneal administration 5, 10, 20 mg/kg, observed 7 days
[10] = 3 and 10 mg/kg vs control, blood on day 8
[11] = 30 mg/kg dose group, multiple administrations

Compound: CC(=O)Nc1cc(C(=O)Nc2cc(C(=O)NCCC(=O)Nc3cn(C)c(C(=O)Nc4cc(C(=O)NCCCC(=O)Nc5cn(C)c(C(=O)Nc6cc(C(=O)Nc7cc(C(=O)NCCC(=O)Nc8cc(C(=O)NCCC(=O)NCCCN(C)C)n(C)c8)n(C)c7)n(C)c6)n5)n(C)c4)n3)n(C)c2)n(C)c1 [AP2-PIPA2]
- inhibitory effects on proliferation (parasitemia) ([1]; any of the Plasmodium strains): no inhibitory effects
- life cycle of P. falciparum (microscopic observation, Giemsa staining) ([2]; human red blood cells): thought to be effective at a higher concentration range than that used in this experiment

Compound: CC(=O)Nc1cc(C(=O)Nc2cc(C(=O)NCCC(=O)Nc3cn(C)c(C(=O)Nc4cc(C(=O)NCCCC(=O)Nc5cn(C)c(C(=O)Nc6cc(C(=O)Nc7cc(C(=O)NCCC(=O)Nc8cc(C(=O)NCCC(=O)NCCCN(C)C)n(C)c8)n(C)c7)n(C)c6)n5)n(C)c4)n3)n(C)c2)n(C)c1 [AP2-PIPA1]
- toxicity (cytotoxicity) (U937 cells, A549 cells): not toxic
- therapeutic effect on malaria infection (parasitemia) ([3]; administration alone): a therapeutic effect on malaria infection was confirmed
- therapeutic effect on malaria infection (parasitemia) ([3]; combined administration with artemisinin): a therapeutic effect on malaria infection was confirmed
- Kd [4]: 4 nM
- AST activity ([5]; mouse, in vivo, ip, 10 mg/kg): an upward trend was observed
- deaths [5, 9]: No deaths were observed
- general conditions, weight change, hematology test, blood chemistry test, autopsy [5, 9]: no changes that were considered to be abnormal were found
- minimum lethal dose ([5]; single intraperitoneal administration, mice): greater than 20 mg/kg
- toxicity of multiple administrations ([6]; dose range examined): not prominently toxic
- ALT [6, 10]: no significant difference
- AST [6, 10]: no significant difference
- mouse death [7, 11]: mouse death
- parasitemia [7, 11]: suppression of parasitemia
- parasitemia ([7]; day 1 to day 7, blood at 11 or 13 days after infection): dose-dependent suppression of parasitemia
- IC50, proliferation (parasitemia) ([1]; artemisinin-resistant plasmodium strain): lower IC50
- life cycle of P. falciparum (microscopic observation, Giemsa staining) ([2]; human red blood cells): arrested a life cycle of P. falciparum at a trophozoite stage
- morphological change (FACS analysis) ([2]; human red blood cells, at both 24 and 48 hours after infection): a morphological change was arrested at the trophozoite stage
- transition to schizont stage / schizont formation [2]: specifically inhibits transition to a schizont stage
- transition to schizont stage / schizont formation ([2]; listed as AP2-PIPA): strongly inhibit schizont formation
- toxicity (cytotoxicity) [8]: not toxic

Compound: Cc1nccnc1N1CCN(S(=O)(=O)c2ccc(-c3ccc(=O)[nH]n3)s2)CC1 [MBX-4055]
- proliferation of Plasmodium spp. (Plasmodium spp.): known to inhibit proliferation of Plasmodium spp.

Compound: C[C@@H]1CC[C@H]2[C@@H](C)C(=O)O[C@@H]3O[C@@]4(C)CC[C@@H]1[C@]32OO4 [artemisinin, reference compound]
- therapeutic effect on malaria infection (parasitemia) ([3]; administration alone): an effect of artemisinin could not be observed
